Data: ChEMBL document CHEMBL1909046, “DrugMatrix in vitro pharmacology data”

Experiments:
[1] = DRUGMATRIX: Tumor Necrosis Factor (TNF), Non-Selective radioligand binding (ligand: [125I] TNF-alpha); format: cell membranes, Membrane; settings: u-937; Not Active = under 50% inhibition at 10 µM
[2] = biological target: T1, C-C chemokine receptor type 4 (Homo sapiens, UniProt P51679); format: cell membranes, Membrane; settings: chem-1; further: in other assays of this panel Not Active means under 50% inhibition at 10 µM
T1 sequence (P51679 whole entry): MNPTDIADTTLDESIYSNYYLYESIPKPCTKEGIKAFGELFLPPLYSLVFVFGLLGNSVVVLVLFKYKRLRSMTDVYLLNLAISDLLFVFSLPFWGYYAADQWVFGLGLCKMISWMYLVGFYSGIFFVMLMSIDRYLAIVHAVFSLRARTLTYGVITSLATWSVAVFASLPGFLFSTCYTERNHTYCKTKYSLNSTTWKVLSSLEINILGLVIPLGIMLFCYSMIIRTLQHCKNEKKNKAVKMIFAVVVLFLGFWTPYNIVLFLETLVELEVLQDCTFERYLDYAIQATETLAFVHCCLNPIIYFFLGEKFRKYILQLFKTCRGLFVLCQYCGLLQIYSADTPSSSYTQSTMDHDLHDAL

[3] = DRUGMATRIX: GABAA, Chloride Channel, TBOB radioligand binding (ligand: [3H] TBOB); format: cell membranes, Rattus norvegicus, Wistar, Cerebral cortex, Membrane; settings: Not Active = under 50% inhibition at 10 µM
Insulin receptor = Insulin receptor (Rattus norvegicus, UniProt P15127); format: cell membranes, Wistar, Liver, Membrane; further: in other assays of this panel Not Active means under 50% inhibition at 10 µM
Sequence of Insulin receptor (P15127 27-759 limits assumed): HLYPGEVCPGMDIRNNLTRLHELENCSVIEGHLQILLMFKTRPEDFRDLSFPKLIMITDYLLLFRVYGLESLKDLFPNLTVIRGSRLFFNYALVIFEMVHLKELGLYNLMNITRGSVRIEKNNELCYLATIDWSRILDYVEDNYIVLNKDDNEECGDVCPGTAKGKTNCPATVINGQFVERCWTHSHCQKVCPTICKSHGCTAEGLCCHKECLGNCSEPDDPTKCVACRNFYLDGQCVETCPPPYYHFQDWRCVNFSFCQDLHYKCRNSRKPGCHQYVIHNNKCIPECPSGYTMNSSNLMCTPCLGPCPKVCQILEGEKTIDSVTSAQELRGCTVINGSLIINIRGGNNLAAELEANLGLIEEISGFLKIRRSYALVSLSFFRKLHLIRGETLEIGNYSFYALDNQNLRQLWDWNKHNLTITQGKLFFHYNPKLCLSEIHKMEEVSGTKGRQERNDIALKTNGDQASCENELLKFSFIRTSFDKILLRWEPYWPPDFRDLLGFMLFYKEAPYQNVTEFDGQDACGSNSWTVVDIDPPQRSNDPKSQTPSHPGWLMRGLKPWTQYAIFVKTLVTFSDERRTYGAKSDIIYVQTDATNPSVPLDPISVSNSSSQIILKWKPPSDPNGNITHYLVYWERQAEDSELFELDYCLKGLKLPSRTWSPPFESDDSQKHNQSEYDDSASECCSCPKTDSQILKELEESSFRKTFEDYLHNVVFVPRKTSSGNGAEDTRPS
Sequence of Insulin receptor (P15127 764-1383 limits assumed): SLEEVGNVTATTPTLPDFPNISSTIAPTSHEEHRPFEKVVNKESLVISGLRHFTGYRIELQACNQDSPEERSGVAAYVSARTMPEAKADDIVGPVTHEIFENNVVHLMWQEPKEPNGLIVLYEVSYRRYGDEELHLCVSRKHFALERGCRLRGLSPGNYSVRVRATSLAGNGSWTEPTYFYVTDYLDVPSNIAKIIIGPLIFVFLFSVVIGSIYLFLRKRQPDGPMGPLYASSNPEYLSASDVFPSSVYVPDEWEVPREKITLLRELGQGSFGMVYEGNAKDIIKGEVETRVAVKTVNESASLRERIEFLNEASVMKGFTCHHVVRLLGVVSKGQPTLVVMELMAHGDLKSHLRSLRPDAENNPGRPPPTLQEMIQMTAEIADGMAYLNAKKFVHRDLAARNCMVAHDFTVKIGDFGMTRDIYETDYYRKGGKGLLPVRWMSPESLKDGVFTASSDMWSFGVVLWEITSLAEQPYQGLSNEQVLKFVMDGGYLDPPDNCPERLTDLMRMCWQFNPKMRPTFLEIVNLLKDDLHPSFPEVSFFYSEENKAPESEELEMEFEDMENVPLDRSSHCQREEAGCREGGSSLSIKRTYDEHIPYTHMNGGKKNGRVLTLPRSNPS

Melanocortin receptor 3 = Melanocortin receptor 3 (Homo sapiens, UniProt P41968); format: cell membranes, Membrane; settings: hek293; further: in other assays of this panel Not Active means under 50% inhibition at 10 µM
[4] = biological target: T2, Muscarinic acetylcholine receptor M4 (Homo sapiens, UniProt P08173); format: cell membranes, CHO-K1, Membrane; settings: cho-k1; further: in other assays of this panel Not Active means under 50% inhibition at 10 µM
T2 sequence (P08173 whole entry): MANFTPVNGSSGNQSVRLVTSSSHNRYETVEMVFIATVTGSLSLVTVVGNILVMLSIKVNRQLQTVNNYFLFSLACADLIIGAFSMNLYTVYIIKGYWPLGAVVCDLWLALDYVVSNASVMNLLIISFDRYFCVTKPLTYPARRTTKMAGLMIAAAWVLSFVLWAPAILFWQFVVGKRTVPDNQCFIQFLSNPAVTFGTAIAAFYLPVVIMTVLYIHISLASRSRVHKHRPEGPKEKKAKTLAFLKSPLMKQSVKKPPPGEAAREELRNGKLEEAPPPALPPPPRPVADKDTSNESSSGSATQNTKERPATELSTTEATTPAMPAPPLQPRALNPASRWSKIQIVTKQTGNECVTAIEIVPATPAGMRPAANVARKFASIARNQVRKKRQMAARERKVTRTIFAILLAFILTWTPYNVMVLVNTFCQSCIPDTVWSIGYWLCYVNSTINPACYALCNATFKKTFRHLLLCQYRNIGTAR

[5] = biological target: Kappa-type opioid receptor (Homo sapiens, UniProt P41145); assay: DRUGMATRIX: Opiate kappa (OP2, KOP) radioligand binding (ligand: [3H] Diprenorphine); format: cell membranes, HEK293, Membrane; settings: hek293; Not Active = under 50% inhibition at 10 µM
Sequence of Kappa-type opioid receptor (P41145 whole entry): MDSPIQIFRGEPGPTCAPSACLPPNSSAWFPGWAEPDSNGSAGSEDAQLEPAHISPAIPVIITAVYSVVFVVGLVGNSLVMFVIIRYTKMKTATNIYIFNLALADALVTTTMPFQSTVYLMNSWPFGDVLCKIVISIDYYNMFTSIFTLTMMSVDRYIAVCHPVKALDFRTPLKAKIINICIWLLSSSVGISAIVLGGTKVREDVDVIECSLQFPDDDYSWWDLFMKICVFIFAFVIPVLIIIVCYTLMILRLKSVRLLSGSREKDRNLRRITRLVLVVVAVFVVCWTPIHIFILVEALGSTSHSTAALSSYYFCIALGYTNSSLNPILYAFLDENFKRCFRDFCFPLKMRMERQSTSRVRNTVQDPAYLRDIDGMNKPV

Caspase-1 = biological target: T3, Caspase-1 (Homo sapiens, UniProt P29466); parameters: species or system Escherichia coli
T3 sequence (P29466 whole entry): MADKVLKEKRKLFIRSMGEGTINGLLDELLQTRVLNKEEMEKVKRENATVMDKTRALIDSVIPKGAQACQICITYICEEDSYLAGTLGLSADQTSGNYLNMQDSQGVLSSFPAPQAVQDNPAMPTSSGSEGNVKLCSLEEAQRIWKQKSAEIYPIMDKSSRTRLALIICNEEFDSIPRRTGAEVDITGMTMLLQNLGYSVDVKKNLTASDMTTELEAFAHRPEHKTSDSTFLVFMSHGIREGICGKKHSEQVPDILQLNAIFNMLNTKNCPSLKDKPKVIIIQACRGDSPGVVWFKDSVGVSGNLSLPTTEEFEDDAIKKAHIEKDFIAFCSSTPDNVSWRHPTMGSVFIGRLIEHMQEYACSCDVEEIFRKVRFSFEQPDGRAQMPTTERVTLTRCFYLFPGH

[6] = biological target: Mitogen-activated protein kinase 1 (Homo sapiens, UniProt P28482); assay: DRUGMATRIX: Protein Serine/Threonine Kinase, ERK2 enzyme inhibition (substrate: Myelin Basic Protein); parameters: species or system Escherichia coli; settings: Not Active = under 50% inhibition at 10 µM
[7] = biological target: Epidermal growth factor receptor (Homo sapiens, UniProt P00533); assay: DRUGMATRIX: Protein Tyrosine Kinase, EGF Receptor enzyme inhibition (substrate: Poly(Glu:Tyr)); format: cell-based, Insect cells; settings: insect cells; Not Active = under 50% inhibition at 10 µM
Sequence of Epidermal growth factor receptor (P00533 whole entry): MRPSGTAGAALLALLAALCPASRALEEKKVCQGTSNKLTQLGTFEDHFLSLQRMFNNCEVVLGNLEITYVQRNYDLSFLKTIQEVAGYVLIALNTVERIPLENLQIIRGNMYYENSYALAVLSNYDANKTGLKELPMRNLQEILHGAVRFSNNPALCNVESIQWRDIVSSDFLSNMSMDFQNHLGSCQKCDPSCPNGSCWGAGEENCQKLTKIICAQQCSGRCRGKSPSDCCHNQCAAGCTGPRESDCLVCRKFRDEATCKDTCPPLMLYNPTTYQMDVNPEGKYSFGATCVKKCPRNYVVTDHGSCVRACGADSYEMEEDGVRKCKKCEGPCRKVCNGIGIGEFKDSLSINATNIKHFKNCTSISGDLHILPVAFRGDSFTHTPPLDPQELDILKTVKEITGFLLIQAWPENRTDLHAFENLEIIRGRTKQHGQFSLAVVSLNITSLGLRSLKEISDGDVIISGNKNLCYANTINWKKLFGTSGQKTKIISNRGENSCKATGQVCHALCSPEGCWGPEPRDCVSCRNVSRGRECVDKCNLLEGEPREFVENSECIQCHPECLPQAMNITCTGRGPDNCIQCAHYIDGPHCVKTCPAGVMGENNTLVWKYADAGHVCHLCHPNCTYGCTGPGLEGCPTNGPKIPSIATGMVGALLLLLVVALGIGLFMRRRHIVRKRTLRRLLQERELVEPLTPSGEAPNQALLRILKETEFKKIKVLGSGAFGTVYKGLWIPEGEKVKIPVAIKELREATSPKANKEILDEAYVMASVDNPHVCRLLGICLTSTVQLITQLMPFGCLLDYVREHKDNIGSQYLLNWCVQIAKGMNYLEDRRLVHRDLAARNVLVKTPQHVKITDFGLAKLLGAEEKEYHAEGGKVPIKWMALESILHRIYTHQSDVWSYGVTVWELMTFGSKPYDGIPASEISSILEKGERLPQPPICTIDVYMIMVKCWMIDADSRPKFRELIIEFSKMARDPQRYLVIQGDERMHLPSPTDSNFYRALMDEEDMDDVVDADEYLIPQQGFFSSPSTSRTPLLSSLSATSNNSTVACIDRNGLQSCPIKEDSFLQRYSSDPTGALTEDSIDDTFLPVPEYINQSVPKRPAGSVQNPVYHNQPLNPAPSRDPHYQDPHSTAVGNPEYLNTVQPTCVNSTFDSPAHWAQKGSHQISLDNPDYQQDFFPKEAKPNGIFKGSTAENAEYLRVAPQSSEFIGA

[8] = biological target: Receptor tyrosine-protein kinase erbB-2 (Homo sapiens, UniProt P04626); assay: biochemical; format: cell-based, Insect cells; settings: insect cells
Sequence of Receptor tyrosine-protein kinase erbB-2 (P04626 whole entry): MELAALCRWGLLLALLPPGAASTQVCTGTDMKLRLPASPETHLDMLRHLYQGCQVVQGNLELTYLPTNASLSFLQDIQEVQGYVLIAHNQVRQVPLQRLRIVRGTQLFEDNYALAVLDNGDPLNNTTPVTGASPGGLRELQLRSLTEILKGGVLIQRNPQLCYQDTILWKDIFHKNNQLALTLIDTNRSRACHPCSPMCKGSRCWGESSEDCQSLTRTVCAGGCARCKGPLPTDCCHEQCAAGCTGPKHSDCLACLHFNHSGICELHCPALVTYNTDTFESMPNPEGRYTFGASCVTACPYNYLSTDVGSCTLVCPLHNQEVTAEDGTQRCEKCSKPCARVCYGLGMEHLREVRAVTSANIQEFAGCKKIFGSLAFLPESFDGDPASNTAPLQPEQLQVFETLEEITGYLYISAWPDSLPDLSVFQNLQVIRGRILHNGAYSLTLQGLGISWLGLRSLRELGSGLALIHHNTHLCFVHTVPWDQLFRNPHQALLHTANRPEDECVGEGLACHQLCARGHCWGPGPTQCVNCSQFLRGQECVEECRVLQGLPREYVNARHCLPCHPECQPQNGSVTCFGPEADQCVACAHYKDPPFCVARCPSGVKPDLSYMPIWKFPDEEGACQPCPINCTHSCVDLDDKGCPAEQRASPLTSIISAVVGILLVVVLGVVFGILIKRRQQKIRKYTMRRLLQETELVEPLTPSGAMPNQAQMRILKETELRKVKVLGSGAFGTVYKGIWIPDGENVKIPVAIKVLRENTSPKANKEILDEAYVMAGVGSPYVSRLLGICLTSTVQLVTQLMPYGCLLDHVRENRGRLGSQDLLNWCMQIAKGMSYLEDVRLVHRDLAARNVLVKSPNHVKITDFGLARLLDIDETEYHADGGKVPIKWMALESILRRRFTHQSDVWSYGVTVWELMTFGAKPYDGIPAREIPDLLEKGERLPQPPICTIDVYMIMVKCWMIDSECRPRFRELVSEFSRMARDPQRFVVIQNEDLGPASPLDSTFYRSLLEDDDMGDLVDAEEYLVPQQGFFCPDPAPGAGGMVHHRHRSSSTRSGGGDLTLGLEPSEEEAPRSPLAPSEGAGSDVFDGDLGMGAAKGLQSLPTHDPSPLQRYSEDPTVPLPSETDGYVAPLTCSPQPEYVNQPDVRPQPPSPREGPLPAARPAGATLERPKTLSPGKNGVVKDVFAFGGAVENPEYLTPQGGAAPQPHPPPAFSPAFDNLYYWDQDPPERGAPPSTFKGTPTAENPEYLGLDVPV

[9] = biological target: 5-hydroxytryptamine receptor 1B (Rattus norvegicus, UniProt P28564); format: cell membranes, Wistar, Cerebral cortex, Membrane; further: in other assays of this panel Not Active means under 50% inhibition at 10 µM
Sequence of 5-hydroxytryptamine receptor 1B (P28564 whole entry): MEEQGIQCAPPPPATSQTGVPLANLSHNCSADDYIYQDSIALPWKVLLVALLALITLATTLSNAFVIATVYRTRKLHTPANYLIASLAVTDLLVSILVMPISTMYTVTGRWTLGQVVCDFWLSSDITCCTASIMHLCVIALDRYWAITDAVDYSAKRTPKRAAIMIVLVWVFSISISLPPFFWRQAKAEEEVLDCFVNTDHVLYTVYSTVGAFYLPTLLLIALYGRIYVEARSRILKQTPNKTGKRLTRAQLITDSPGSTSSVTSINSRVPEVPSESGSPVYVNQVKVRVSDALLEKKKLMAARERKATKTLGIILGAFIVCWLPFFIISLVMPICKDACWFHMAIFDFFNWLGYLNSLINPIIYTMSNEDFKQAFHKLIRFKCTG

Cytochrome P450 2C9 = Cytochrome P450 2C9 (Homo sapiens, UniProt P11712); settings: bti-tn-5b1-4; further: in other assays of this panel Not Active means under 50% inhibition at 10 µM
Sequence of Cytochrome P450 2C9 (P11712 whole entry): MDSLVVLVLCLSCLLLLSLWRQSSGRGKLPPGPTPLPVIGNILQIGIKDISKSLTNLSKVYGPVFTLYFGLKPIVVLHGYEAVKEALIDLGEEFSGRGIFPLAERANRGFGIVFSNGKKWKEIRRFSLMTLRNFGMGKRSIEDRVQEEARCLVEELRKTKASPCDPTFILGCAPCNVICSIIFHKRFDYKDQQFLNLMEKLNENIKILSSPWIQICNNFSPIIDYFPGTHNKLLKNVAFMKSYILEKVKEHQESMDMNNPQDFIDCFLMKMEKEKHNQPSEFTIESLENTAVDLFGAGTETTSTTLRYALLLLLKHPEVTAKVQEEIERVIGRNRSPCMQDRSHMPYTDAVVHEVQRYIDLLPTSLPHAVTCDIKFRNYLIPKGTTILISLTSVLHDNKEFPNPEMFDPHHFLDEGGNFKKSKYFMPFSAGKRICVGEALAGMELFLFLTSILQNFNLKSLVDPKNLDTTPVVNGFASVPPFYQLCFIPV

Glucocorticoid receptor = biological target: T4, Glucocorticoid receptor (Homo sapiens, UniProt P04150); settings: hela s3; further: in other assays of this panel Not Active means under 50% inhibition at 10 µM
T4 sequence (P04150 whole entry): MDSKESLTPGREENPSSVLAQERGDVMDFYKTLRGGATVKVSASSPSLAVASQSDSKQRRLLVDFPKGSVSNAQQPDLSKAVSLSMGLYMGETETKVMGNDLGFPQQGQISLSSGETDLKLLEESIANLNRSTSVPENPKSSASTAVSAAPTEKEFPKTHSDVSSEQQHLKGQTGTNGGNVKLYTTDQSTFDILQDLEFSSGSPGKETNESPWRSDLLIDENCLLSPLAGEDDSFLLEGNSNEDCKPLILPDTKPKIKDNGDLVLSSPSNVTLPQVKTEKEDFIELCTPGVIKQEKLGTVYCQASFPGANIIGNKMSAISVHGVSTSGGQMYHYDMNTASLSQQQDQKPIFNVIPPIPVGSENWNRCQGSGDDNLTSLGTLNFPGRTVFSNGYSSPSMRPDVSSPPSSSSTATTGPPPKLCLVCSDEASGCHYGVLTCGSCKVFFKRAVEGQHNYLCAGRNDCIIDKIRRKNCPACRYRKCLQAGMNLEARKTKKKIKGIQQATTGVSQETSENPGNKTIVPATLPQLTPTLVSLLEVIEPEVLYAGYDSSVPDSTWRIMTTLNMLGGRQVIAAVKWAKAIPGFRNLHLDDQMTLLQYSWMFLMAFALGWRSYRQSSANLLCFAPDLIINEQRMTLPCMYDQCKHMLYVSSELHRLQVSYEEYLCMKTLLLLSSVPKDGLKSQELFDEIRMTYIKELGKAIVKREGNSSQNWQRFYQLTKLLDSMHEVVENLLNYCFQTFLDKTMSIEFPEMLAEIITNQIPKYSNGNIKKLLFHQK

COc1ccc2cc(CC(=O)O)ccc2c1
Not Active: IC50 [1] | Ki [1] | IC50 [2] | IC50 [3] | Ki [3] | IC50 (Insulin receptor) | IC50 (Melanocortin receptor 3) | IC50 [4] | IC50 [5] | IC50 (Caspase-1) | IC50 [6] | IC50 [7] | IC50 [8] | IC50 [9] | IC50 (Cytochrome P450 2C9) | Ki (Cytochrome P450 2C9) | IC50 (Glucocorticoid receptor)

CC=CC(=O)N(CC)c1ccccc1C
Not Active: IC50 [1] | Ki [1] | IC50 [2] | IC50 [3] | Ki [3] | IC50 (Insulin receptor) | IC50 (Melanocortin receptor 3) | IC50 [4] | IC50 [5] | IC50 (Caspase-1) | IC50 [6] | IC50 [7] | IC50 [8] | IC50 [9] | IC50 (Cytochrome P450 2C9) | Ki (Cytochrome P450 2C9) | IC50 (Glucocorticoid receptor)

C=C1C(=O)O[C@@H]2C3O[C@]3(C)CC/C=C(\C)CC[C@@H]12 (some centres not stated)
Not Active: IC50 [1] | Ki [1] | IC50 [2] | IC50 [3] | Ki [3] | IC50 (Insulin receptor) | IC50 (Melanocortin receptor 3) | IC50 [4] | IC50 [5] | IC50 (Caspase-1) | IC50 [6] | IC50 [7] | IC50 [8] | IC50 [9] | IC50 (Cytochrome P450 2C9) | Ki (Cytochrome P450 2C9) | IC50 (Glucocorticoid receptor)

COc1ccc2c(c1)c(CC(=O)OCC(=O)O)c(C)n2C(=O)c1ccc(Cl)cc1 [ACEMETACIN]
Not Active: IC50 [1] | Ki [1] | IC50 [2] | IC50 [3] | Ki [3] | IC50 (Insulin receptor) | IC50 (Melanocortin receptor 3) | IC50 [4] | IC50 [5] | IC50 (Caspase-1) | IC50 [6] | IC50 [7] | IC50 [8] | IC50 [9] | IC50 (Cytochrome P450 2C9) | Ki (Cytochrome P450 2C9) | IC50 (Glucocorticoid receptor)

CCCSc1ccc2nc(NC(=O)OC)[nH]c2c1 [ALBENDAZOLE]
Not Active: IC50 [1] | Ki [1] | IC50 [2] | IC50 [3] | Ki [3] | IC50 (Insulin receptor) | IC50 (Melanocortin receptor 3) | IC50 [4] | IC50 [5] | IC50 (Caspase-1) | IC50 [6] | IC50 [7] | IC50 [8] | IC50 [9] | IC50 (Cytochrome P450 2C9) | Ki (Cytochrome P450 2C9) | IC50 (Glucocorticoid receptor)

O=c1cc(-c2ccccc2)oc2c1ccc1ccccc12 [ALPHA-NAPHTHOFLAVONE]
Not Active: IC50 [1] | Ki [1] | IC50 [2] | IC50 [3] | Ki [3] | IC50 (Insulin receptor) | IC50 (Melanocortin receptor 3) | IC50 [4] | IC50 [5] | IC50 (Caspase-1) | IC50 [6] | IC50 [7] | IC50 [8] | IC50 [9] | IC50 (Cytochrome P450 2C9) | Ki (Cytochrome P450 2C9) | IC50 (Glucocorticoid receptor)

O=C1OCCN1/N=C/c1ccc([N+](=O)[O-])o1 [FURAZOLIDONE]
Not Active: IC50 [1] | Ki [1] | IC50 [2] | IC50 [3] | Ki [3] | IC50 (Insulin receptor) | IC50 (Melanocortin receptor 3) | IC50 [4] | IC50 [5] | IC50 (Caspase-1) | IC50 [6] | IC50 [7] | IC50 [8] | IC50 [9] | IC50 (Glucocorticoid receptor)

NCC(=O)O [GLYCINE]
Not Active: IC50 [1] | Ki [1] | IC50 [2] | IC50 [3] | Ki [3] | IC50 (Insulin receptor) | IC50 (Melanocortin receptor 3) | IC50 [4] | IC50 [5] | IC50 (Caspase-1) | IC50 [6] | IC50 [7] | IC50 [8] | IC50 [9] | IC50 (Glucocorticoid receptor)

O=P1(NCCCl)OCCCN1CCCl (configuration not stated) [IFOSFAMIDE]
Not Active: IC50 [1] | Ki [1] | IC50 [2] | IC50 [3] | Ki [3] | IC50 (Insulin receptor) | IC50 (Melanocortin receptor 3) | IC50 [4] | IC50 [5] | IC50 (Caspase-1) | IC50 [6] | IC50 [7] | IC50 [8] | IC50 [9] | IC50 (Glucocorticoid receptor)
